“And” between values parts separate entries of the source, which are not always exact repeats. Equal values may be shown once. “Also recorded” adds a separate entry of the source. Non-standard residues stand in square brackets, D forms with d. Residues, ends and D or L forms follow the SMILES beside them. pS = N[C@@H](COP(=O)(O)O)C(=O)O
Assays:
[1] = tested on: CD4+ T splenocytes; experiment: Collagen-induced arthritis (CIA) DBA/1 mice, ex vivo T splenocyte proliferation with CII (CFSE, FACS); assay type: in vivo, mouse
Method: Next, P140 peptide was administered in a model of mice that develop a RA-like disease (we anticipated to use this mouse model as a negative control of MRL/lpr-lupus prone mice). This model, called collagen-induced arthritis (CIA) mouse model, is the most commonly studied autoimmune model of RA. In this model, autoimmune arthritis is induced by immunizing DBA/1 mice with an emulsion of complete Freund's adjuvant (CFA) and type II collagen (CII), and typically, the first signs of arthritis appear in 21-28 days after immunization (Brand et al., 2007). CIA shares several pathological features with human RA, and CII is a major protein in cartilage, the target tissue of RA. Pathological features include synovial hyperplasia, mononuclear cell infiltration, and cartilage degradation. Susceptibility in these mice is linked to the expression of specific MHC class II genes, DBA/1 have H-2^q haplotype.
P140 peptide was thus administrated intravenously to DBA/1 mice at day −1, +7, +14 and +20 in a setting close to the one we used in MRL/lpr mice (100 μg/injection/mouse). CII in CFA was injected at days +1 and +21 (200 μg, intradermal route). Mouse weight and their clinical score were followed using very classical procedure. Biological parameters were also evaluated (i.e. T cell response, antibody response, joint histology, etc).

[2] = tested on: Balb/c mice; experiment: 15-day ovalbumin-induced airway hypereosinophilia model, BAL cell counts; assay type: in vivo, mouse; conditions: for B cells / Eosinophils / Macrophages / Neutrophils / T cells / Total cells: per mouse
Method: The anti-inflammatory effect of the P140 phosphopeptide was evaluated when administered locally (intranasally) or systemically (intravenously) in a 15-day model of hypereosinophilic airway inflammation in mice.
The P140 phosphopeptide was solubilized in sterile water (Braun) and 10× concentrate sterile saline was added to adjust osmolarity to 300 mosm. Osmolarity was controlled with a micro osmometer (Löser, type 15) and validated (302 mosm).
The P140 phosphopeptide was used in vivo at the dose of 4 mg/kg by intranasal (i.n.) and intravenous (i.v.) routes. Control animals received equivalent volumes (1 ml/kg for i.n. and 2 ml/kg for i.v.) of saline (Table 6).
Nine-week-old male Balb/c mice were sensitized by intraperitoneal (i.p.) injections of a mixture containing 50 μg OVA (Sigma-Aldrich) and 2 mg alum (Sigma-Aldrich) in 0.1 ml saline. Mice were challenged by i.n. administration of 25 μl of OVA on day 5, then 25 μl of OVA and/or saline on day 12, 13 and 14. Mice were treated by i.v. injection (2 ml/kg) or i.n. administration (1 ml/kg) of P140 or solvent on day 9 (See FIG. 9).
BAL was performed twenty-four hours after […] challenge as described (Daubeuf, F. and Frossard, N. 2012. Performing Bronchoalveolar Lavage in the Mouse. Curr Protoc Mouse Biol 2:167-175). Mice were anaesthetized IP (Ketamine 150 mg/kg—Xylasine 10 mg/kg). Blood was collected from the heart, centrifuged at 10,000 g for 2 min and serum stored at −20° C. After semi-excision of the trachea, a plastic cannula was inserted, and airspace washed with 0.5 ml of 0.9% NaCl injected with a 1 ml syringe. This procedure was performed 10 times. The initial concentrated supernatant of the 2 first lavages (volume=2×0.5 ml administered, ˜0.5 ml recovered) was collected for cytokine measurements. The remaining BAL fluid was centrifuged (300 g for 5 min, 4° C.), and cell pellets pooled. The cell pellet was suspended in 500 μl of 0.9% NaCl and used for total cell counts evaluated on a Muse® Cell Analyser. Differential cell counts were assessed by flow cytometry (LSRII® cytometer, BD Bioscience). BAL cells were added with FCblock (0.5 μl, 553142, BD Bioscience) in a black microplate, incubated for 20 min at room temperature. Then, marker antibodies were added: CD11c-FITC (557400, BD bioscience), Gr-1-Pe-eFluor610 (61-5931-82, eBioscience), CD11b-APC-Cy7 (557657, BD bioscience), CD45-AlexaFluor700 (103128, BioLegend), CD3-BV605 (564009, BD bioscience), CD19-PE-Cy7 (552854, BD bioscience). Antibodies were incubated with BAL cells for 30 min at room temperature before DAPI (5 μl, BD bioscience) addition, and flow cytometry was performed immediately.
Data are presented as means±SEM. Differences between groups were tested for statistical significance using one-way ANOVA followed by Tukey's post-test. For statistical analysis, control groups 1, 2 and 3 were pooled.

[3] = BAL, P140-IN (i.n. 4 mg/kg, day 9), OVA challenge
[4] = BAL, P140-IN (i.n. 4 mg/kg, day 9), saline challenge
[5] = BAL, P140-IV (i.v. 4 mg/kg, day 9), OVA challenge
[6] = BAL, P140-IV (i.v. 4 mg/kg, day 9), saline challenge

Which results are given for `CC[C@H](C)[C@H](NC(=O)[C@H](Cc1ccccc1)NC(=O)[C@H](C)NC(=O)[C@H](Cc1ccc(O)cc1)NC(=O)CNC(=O)[C@H](CCCNC(=N)N)NC(=O)[C@@H]1CCCN1C(=O)[C@H](CCCCN)NC(=O)CNC(=O)[C@H](COP(=O)(O)O)NC(=O)[C@H](CCCNC(=N)N)NC(=O)[C@H](CCCCN)NC(=O)[C@H](CO)NC(=O)[C@H](Cc1ccc(O)cc1)NC(=O)[C@@H](NC(=O)[C@H](CCSC)NC(=O)[C@H](Cc1c[nH]cn1)NC(=O)[C@@H](NC(=O)[C@@H](N)CCCNC(=N)N)[C@@H](C)CC)C(C)C)C(=O)N[C@@H](CCC(=O)O)C(=O)N[C@@H](Cc1ccc(O)cc1)C(=O)O` [Compound P140] (H-RIHMVYSKR[pS]GKPRGYAFIEY-OH; N-terminus and C-terminus assumed)?
CD4+ T splenocytes proliferation ([1]; DBA/1 CIA mice, 100 μg/injection i.v. day −1, +7, +14, +20, ex vivo 100 μg CII/mL): strongly diminished; CD8+ T cells proliferation ([1]; same conditions as CD4+ T cells): No effect; B cells [2, 3]: 25606 and 32251 and 26562 and 23383 and 33156 and 13236; Eosinophils [2, 3]: 490306 and 497948 and 737671 and 839841 and 792249 and 615171; Macrophages [2, 3]: 271110 and 322340 and 247391 and 538954 and 436210 and 286509; Neutrophils [2, 3]: 57542 and 60787 and 62354 and 95173 and 47346 and 65366; T cells [2, 3]: 44036 and 61800 and 73159 and 118360 and 101951 and 61293; Total cells [2, 3]: 862995 and 942875 and 1120576 and 1592328 and 1377755 and 1028339; B cells [2, 4]: 112 and 242; Eosinophils [2, 4]: 168 and 103; Macrophages [2, 4]: 388102 and 434029; Neutrophils [2, 4]: 56 and 61; T cells [2, 4]: 4135 and 4180; Total cells [2, 4]: 392461 and 438573; B cells [2, 5]: 10219 and 15209 and 14027 and 17417 and 11003 and 10922; Eosinophils [2, 5]: 425928 and 272763 and 473105 and 470027 and 327186 and 429469; Macrophages [2, 5]: 439265 and 442055 and 244523 and 293070 and 342134 and 379565; Neutrophils [2, 5]: 42783 and 21442 and 59616 and 76867 and 40275 and 31756; T cells [2, 5]: 41744 and 43881 and 32677 and 55502 and 28857 and 45030; Total cells [2, 5]: 949720 and 780142 and 809921 and 895467 and 738452 and 885821; B cells [2, 6]: 70 and 266; Eosinophils [2, 6]: 110 and 166; Macrophages [2, 6]: 335658 and 335200; Neutrophils [2, 6]: 259 and 133; T cells [2, 6]: 5311 and 4790; Total cells [2, 6]: 341738 and 340389; Number of cells recovered in BAL fluid as compared to vehicle ([2]; control mice challenged with saline, i.n. or i.v.): little effect; Inflammatory cell recruitment in BAL (in words) ([2]; i.n. route, 4 mg/kg, OVA challenge): little effect; also recorded: without substantial effect; Neutrophils recruitment, change vs OVA group ([2]; i.v. 4 mg/kg, OVA challenge, BAL, not significant): −38%; Eosinophil recruitment, change vs OVA group ([2]; i.v. 4 mg/kg, OVA challenge, BAL, p<0.001): −50%; T cells recruitment, change vs OVA group ([2]; i.v. 4 mg/kg, OVA challenge, BAL, p<0.01): −66%; B cells recruitment, change vs OVA group ([2]; i.v. 4 mg/kg, OVA challenge, BAL, p<0.05): −42%; Anti-inflammatory effect (in words) ([2]; i.v. administration 4 mg/kg, OVA challenge): shows anti-inflammatory effect
